Test systems include HOP-62 NSCLC; 786-0 renal; SF-268 CNS; RPMI-8226 leukemia; NCI-H226 lung; SN12C renal; SR leukemia; COLO 205 colon; HOP-92 NSCLC.
Holding throughout (test): growth of human tumour cells (NCI), 48 h

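Interpolation was linear, between the two tested concentrations surrounding the appropriate level; five concentrations were tested over 48 hours in 96-well plates. Abbreviation: GI50, concentration required for 50% inhibition of growth. TGI marks complete inhibition of growth.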 Where only a bound is given, the exact number is not on record here.

As for `CC(=O)[CH-]C(=O)c1ccccc1.CC(=O)[CH-]C(=O)c1ccccc1.O=S(=O)([O-])c1cc([O-])c2c([O-])cc(S(=O)(=O)[O-])cc2c1.[Na+].[Ti+4]`, the GI50 in the assay with HOP-62 NSCLC is greater than 100 µM; with 786-0 renal, greater than 100 µM; in the assay on SF-268 CNS it was greater than 100 µM; in the assay on RPMI-8226 leukemia it was greater than 100 µM; with NCI-H226 lung it was 47.5 µM; in the assay with SN12C renal it was greater than 100 µM. In addition, the TGI with HOP-62 NSCLC, with 786-0 renal, in the assay with SF-268 CNS, with RPMI-8226 leukemia, in the assay with NCI-H226 lung and in the assay with SN12C renal was greater than 100 µM throughout.
Consider `CCc1cccc(C)c1NC(=O)CC1C(=O)Nc2ccccc2S1=O` (configuration not stated), for which the TGI in the assay with HOP-62 NSCLC, with 786-0 renal, with SF-268 CNS, with SR leukemia, in the assay on RPMI-8226 leukemia and with COLO 205 colon was greater than 100 µM in each case. Further, the TGI in the assay on NCI-H226 lung, in the assay on SN12C renal and in the assay with HOP-92 NSCLC was greater than 100 µM throughout.
For the molecule `N#Cc1c(-c2ccco2)cc(-c2ccc(N)cc2)[nH]c1=O`, the TGI in the assay with HOP-62 NSCLC, in the assay with 786-0 renal, in the assay on SF-268 CNS, with SR leukemia, in the assay on RPMI-8226 leukemia and in the assay on NCI-H226 lung was greater than 100 µM each time. For the same molecule, the TGI with SN12C renal and with HOP-92 NSCLC was greater than 100 µM each time.
Take `O=C1C2[C@@H](C(=O)N1c1ccc(Br)cc1)C13C(=CC2([N+](=O)[O-])[C@@H]2C(=O)N(c4ccc(Br)cc4)C(=O)[C@@H]21)c1ccccc1N3c1ccccc1` (some centres not stated): the TGI in the assay with 786-0 renal was 31.1 µM; in the assay with SF-268 CNS, 24.2 µM; in the assay on SR leukemia it was greater than 100 µM; in the assay on RPMI-8226 leukemia it was greater than 100 µM; in the assay on COLO 205 colon, greater than 100 µM; in the assay on NCI-H226 lung it was greater than 100 µM. Besides, the TGI in the assay with SN12C renal and with HOP-92 NSCLC was greater than 100 µM throughout.
`NC(=S)N/N=C1\CCCC\C1=C/c1ccccc1`: the TGI was greater than 100 µM in the assay on HOP-62 NSCLC; greater than 100 µM in the assay with 786-0 renal; greater than 100 µM with SF-268 CNS; 38.2 µM with RPMI-8226 leukemia; greater than 100 µM in the assay with COLO 205 colon; greater than 100 µM in the assay with SN12C renal. Also, the TGI in the assay with HOP-92 NSCLC is greater than 100 µM.
For `CC12CCC(=O)N1c1cccnc1N2` (configuration not stated), the TGI in the assay with HOP-62 NSCLC, with 786-0 renal, in the assay on SF-268 CNS, in the assay with RPMI-8226 leukemia, with COLO 205 colon and in the assay on NCI-H226 lung was greater than 100 µM in each case. The TGI in the assay with SN12C renal and in the assay on HOP-92 NSCLC was greater than 100 µM throughout.
As to `Cc1sc2c(c1C)C(c1ccc(Cl)cc1)=N[C@@H](CC(=O)Nc1ccc(OCCOCCOCCOCCNc3cccc4c3C(=O)N(C3CCC(=O)NC3=O)C4=O)cc1)c1nnc(C)n1-2` (some centres not stated), the GI50 in the assay with HOP-62 NSCLC is less than 0.01 µM; in the assay on SF-268 CNS it was 0.254 µM; with SR leukemia, less than 0.0219 µM; with RPMI-8226 leukemia it was less than 0.0175 µM; in the assay on COLO 205 colon, less than 0.0279 µM; with NCI-H226 lung, less than 0.0212 µM. In the assay on HOP-92 NSCLC, the GI50 was less than 0.0125 µM. Moreover, the TGI is greater than 100 µM in the assay on HOP-62 NSCLC; greater than 100 µM in the assay on 786-0 renal; greater than 100 µM in the assay on SF-268 CNS; greater than 100 µM in the assay with SR leukemia; greater than 100 µM with RPMI-8226 leukemia; greater than 82.4 µM with COLO 205 colon. The TGI is greater than 100 µM in the assay on NCI-H226 lung, greater than 100 µM in the assay with SN12C renal and greater than 51.8 µM in the assay with HOP-92 NSCLC.
For `Cc1ccc2c(c1-c1ccccc1)C(=O)OC2`, the TGI in the assay on HOP-62 NSCLC, in the assay on 786-0 renal, in the assay on SF-268 CNS, with SR leukemia, in the assay with RPMI-8226 leukemia and in the assay on COLO 205 colon was greater than 100 µM each time. In addition, the TGI in the assay with NCI-H226 lung and in the assay with SN12C renal was greater than 100 µM each time.
Consider `O=C1C=CC(=CC=C2C=CN(CCCCCCCCCCC(=O)NCCCCCCCCCCCC(=O)O)C=C2)C=C1`, for which the TGI in the assay on HOP-62 NSCLC, with 786-0 renal, in the assay on SF-268 CNS, in the assay with SR leukemia, with RPMI-8226 leukemia and with COLO 205 colon was greater than 100 µM throughout. In addition, the TGI in the assay with NCI-H226 lung, in the assay with SN12C renal and with HOP-92 NSCLC was greater than 100 µM throughout.
Take `CCOC(=O)C(C)(c1c(C)[nH]c2ccccc12)c1c(C)[nH]c2ccccc12`: the TGI in the assay on HOP-62 NSCLC came to 43.6 µM; in the assay on 786-0 renal it was 43 µM; in the assay on RPMI-8226 leukemia, 46.2 µM; with NCI-H226 lung it was 32.9 µM.
On to `NC(CCc1ncc(C(=O)O)s1)C(=O)O` (configuration not stated), for which the TGI in the assay with 786-0 renal, in the assay with RPMI-8226 leukemia, in the assay with COLO 205 colon, in the assay on NCI-H226 lung, in the assay with SN12C renal and with HOP-92 NSCLC was greater than 100 µM each time.
With `Cc1ccc(N2C(=O)N(c3ccc(C)cc3)C3(SC=NN3C)C2=O)cc1` (configuration not stated), the TGI in the assay with HOP-62 NSCLC, with 786-0 renal, in the assay on SF-268 CNS, with SR leukemia, with RPMI-8226 leukemia and with COLO 205 colon was greater than 100 µM in each case. Also, the TGI in the assay with NCI-H226 lung, in the assay with SN12C renal and in the assay on HOP-92 NSCLC was greater than 100 µM throughout.
For the molecule `Cc1c(Cl)cccc1NC(=O)c1cccc([N+](=O)[O-])c1O`, the TGI with HOP-62 NSCLC was 29.3 µM; with 786-0 renal, greater than 78.1 µM; in the assay on SF-268 CNS, greater than 100 µM; with SR leukemia, 74.8 µM; in the assay on RPMI-8226 leukemia it was greater than 60 µM; with COLO 205 colon, 27.3 µM. For the same molecule, the TGI with NCI-H226 lung came out at 56.3 µM; in the assay on SN12C renal, 97.4 µM; in the assay with HOP-92 NSCLC it was 7.88 µM.
On to `CC(C)(C)OC(=O)N1C2CCCC23O[C@@H]1c1cc2c(cc1C3=O)OCO2` (some centres not stated), for which the TGI in the assay on HOP-62 NSCLC, in the assay on 786-0 renal, in the assay on SF-268 CNS, in the assay with SR leukemia, with NCI-H226 lung and in the assay on SN12C renal was greater than 100 µM each time. Also, the TGI in the assay with HOP-92 NSCLC was greater than 100 µM.
As for `CC1CCC(C(C)(C)c2ccccc2)C(=O)C1` (configuration not stated), the TGI in the assay on HOP-62 NSCLC, with 786-0 renal, in the assay on SF-268 CNS, in the assay on RPMI-8226 leukemia, in the assay on COLO 205 colon and in the assay on SN12C renal was greater than 100 µM in each case. In the assay with HOP-92 NSCLC, this molecule returned a TGI greater than 100 µM.

The record behind these values is PubChem BioAssay (NCI).
